What was measured:
[1] = test system: Type 2 diabetic C57BL/6 db/db mice; test: Low blood glucose sustainability in non-fasting type 2 diabetic mice; assay type: in vivo; conditions: 25 nmol/kg intraperitoneal
Procedure: The following experiment was performed to evaluate low blood glucose sustainability of C40 site specific PEG bound exendin-4 composition according to the present invention in Type 2 diabetic mice.
Type 2 diabetic C57BL/6 db/db mice (male, 4-5 weeks old, Central Lab. Animal Inc.) were used, and animals were exposed to light at 12 hours cycle and were grown after having stabilized two week by allowing free intake of foods and water. The experimental animals were managed following the guideline of National Institute of Health (NIH) and authorized by Institutional Animal Care and Use Committee of Sungkyunkwan University, and the experiment was performed humanely.
C40-PEG5K-Ex4 (linear), C40-PEG20K-Ex4 (linear), C40-PEG20K-Ex4 (branch), C40-PEG23K-Ex4 (trimer) and C40-PEG50K-Ex4 (trimer) prepared from the Example 1 to 5 and Lys^27-PEG20K-Ex4 prepared in Comparative example 1b were intraperitoneally injected with 25 nmol/kg dose to male db/db mice (6-7 weeks old), blood was collected from tail vein of mice following the float time: 0, 0.5, 1, 2, 3, 4, 6, 8, 12, 24, 36, 48, 60, 72, 96 hours and blood glucose concentration was measured with ACCU-CHEK Sensor (Roche Diagnostics Corp., USA). Afterwards, the low blood glucose sustaining time (blood glucose level<8.35 mmol/l (150 mg/dL)) was additionally measured and shown in Table 4 and FIG. 12. In the present experiment, exendin-4 was used as the control group.

GLP-1 receptor (GLP-1R) = molecular target: T1, GLP-1 receptor (GLP-1R) (Rattus norvegicus, UniProt P32301); test: RIN-m5F cell receptor binding affinity (I-125 exendin-4 displacement)
T1 construct: Islet cells (RIN-m5F, ATCC, Manassas, Va.) expressing vast quantity of GLP-1 receptor (GLP-1R) were inoculated in 12-wells plates; host or cells: RIN-m5F
T1 sequence (P32301 22-463): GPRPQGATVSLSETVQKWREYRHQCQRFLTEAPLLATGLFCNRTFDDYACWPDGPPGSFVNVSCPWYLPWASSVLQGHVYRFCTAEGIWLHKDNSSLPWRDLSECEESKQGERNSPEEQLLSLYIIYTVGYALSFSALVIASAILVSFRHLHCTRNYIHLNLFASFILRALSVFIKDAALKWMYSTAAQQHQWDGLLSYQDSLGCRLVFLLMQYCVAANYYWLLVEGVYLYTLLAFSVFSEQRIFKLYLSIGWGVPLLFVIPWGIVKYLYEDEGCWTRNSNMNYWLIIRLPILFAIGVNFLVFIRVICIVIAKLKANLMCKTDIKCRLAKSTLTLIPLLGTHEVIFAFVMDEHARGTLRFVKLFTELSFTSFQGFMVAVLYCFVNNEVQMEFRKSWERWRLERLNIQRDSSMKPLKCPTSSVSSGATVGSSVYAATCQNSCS
Procedure: Thorough washing was done with PBS including […] bovine serum albumin after two hours.

Row | Substance | Blood glucose level (average) ([1]; time 0 h) | Blood glucose level (average) ([1]; time 0.5 h) | Blood glucose level (average) ([1]; time 1 h) | Blood glucose level (average) ([1]; time 2 h) | Blood glucose level (average) ([1]; time 3 h) | Blood glucose level (average) ([1]; time 4 h) | Blood glucose level (average) ([1]; time 6 h) | Blood glucose level (average) ([1]; time 8 h) | Blood glucose level (average) ([1]; time 12 h) | Blood glucose level (average) ([1]; time 24 h) | Blood glucose level (average) ([1]; time 36 h) | Blood glucose level (average) ([1]; time 48 h) | Blood glucose level (average) ([1]; time 60 h) | IC50 (GLP-1 receptor (GLP-1R); RIN-m5F cells, competition with 30 pM I-125 exendin-4 (9-39), 2 hours) | activity (GLP-1 receptor affinity) better than Comparative example 1a (Lys^12-PEG5K-Ex4) (GLP-1 receptor (GLP-1R); ratio of IC50 values) | activity (GLP-1 receptor affinity) better than Comparative example 1b (Lys^27-PEG5K-Ex4) (GLP-1 receptor (GLP-1R); ratio of IC50 values) | activity (GLP-1 receptor affinity) better than Comparative example 2 (Nter-PEG5K-Ex4) (GLP-1 receptor (GLP-1R); ratio of IC50 values) | low blood glucose sustaining time (time required for blood glucose level increasing back to 8.35 mmol/l) ([1]; blood glucose level<8.35 mmol/l (150 mg/dL)) | Blood glucose level (average) ([1]; time 72 h)
1 | Example 3: exendin-4-Cys (SEQ ID NO: 1) bound at C40 with branch type 20 kDa mPEG-MAL | 24.44 mmol/L | 7.86 mmol/L | 6.89 mmol/L | 5.04 mmol/L | 4.15 mmol/L | 4.66 mmol/L | 4.67 mmol/L | 5.11 mmol/L | 7.89 mmol/L | 15.09 mmol/L | 20.14 mmol/L | 24.21 mmol/L | 23.76 mmol/L | – | – | – | – | – | –
2 | Example 1: exendin-4-Cys (cysteine at C-terminal #40 site, SEQ ID NO: 1) bound with linear 5 kDa mPEG-MAL | 23.38 mmol/L | 7.62 mmol/L | 7.36 mmol/L | 5.09 mmol/L | 4.46 mmol/L | 4.93 mmol/L | 5.73 mmol/L | 9.04 mmol/L | 16.2 mmol/L | 21.1 mmol/L | – | – | – | 1.04 nM | 6 times | twice | 120 times | – | –
3 | 1b (Lys^27-PEG20K-Ex4): exendin-4 (SEQ ID NO: 2) PEGylated at Lys27 amine with 20 kDa mPEG-SPA [reference compound] | 24.13 mmol/L | 7.97 mmol/L | 6.56 mmol/L | 5.24 mmol/L | 4.22 mmol/L | 4.29 mmol/L | 4.85 mmol/L | 5.13 mmol/L | 5.40 mmol/L | 12.98 mmol/L | 17.34 mmol/L | 20.45 mmol/L | 23.02 mmol/L | – | – | – | – | – | –
4 | Example 2: exendin-4-Cys (SEQ ID NO: 1) bound at C40 with linear 20 kDa mPEG-MAL | 24.28 mmol/L | 7.96 mmol/L | 6.13 mmol/L | 5.29 mmol/L | 4.18 mmol/L | 4.34 mmol/L | 4.9 mmol/L | 4.57 mmol/L | 5.86 mmol/L | 8.54 mmol/L | 11.47 mmol/L | 15.34 mmol/L | 20.45 mmol/L | – | – | – | – | 23.2 h | 23.02 mmol/L
